This test concerns the target T1, human LCE (Homo sapiens, UniProt Q9H5J4).
T1 sequence (Q9H5J4 1-265): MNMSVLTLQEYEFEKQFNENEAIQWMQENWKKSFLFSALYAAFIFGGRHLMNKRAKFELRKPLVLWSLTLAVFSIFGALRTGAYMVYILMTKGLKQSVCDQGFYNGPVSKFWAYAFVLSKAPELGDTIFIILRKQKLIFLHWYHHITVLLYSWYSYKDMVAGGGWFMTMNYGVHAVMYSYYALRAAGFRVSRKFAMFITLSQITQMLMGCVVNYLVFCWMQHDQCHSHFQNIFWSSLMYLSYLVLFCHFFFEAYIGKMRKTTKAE
Put plainly: LCE enzymatic activity inhibition test. It is filed as biochemical. Conditions: palmitoyl-CoA and [14C]-malonyl-CoA substrate, 37° C. for 90 minutes, pH 6.5. As to the method: A test compound was dissolved in dimethylsulfoxide (DMSO) at 10 mM, and then, the resulting solution was further diluted with DMSO to prepare a 1000-fold stock solution having a concentration 1000 times higher than the concentration to be evaluated. An LCE enzymatic activity inhibition test was carried out by a modified method of Moon (J. Biol. Chem., Vol. 276, pp. 45358-45366, (2001)) et al. That is, the diluted test compound was added to a 96-well assay plate (Corning, 96-Well Assay Block) in an amount of 1.0 μL per well, and thereafter, 50 μL of a phosphate buffer solution (a 100 mM potassium phosphate buffer solution (pH 6.5)), 25 μL of a substrate solution (a 100 mM potassium phosphate buffer solution (pH 6.5), 4.0 μM rotenone, 80 μM fatty acid-free bovine serum albumin, 160 μM palmitoyl-CoA, 80 μM malonyl-CoA, 3.5 μM [^14C]-malonyl-CoA (1.92 GBq/mmol, manufactured by Amersham, Inc.)) was added to each well, and further, 25 μL of an enzyme solution (a 100 mM potassium phosphate buffer solution (pH 6.5), 100 μg/mL human LCE) was added thereto. Then, the upper part of the plate was hermetically closed with a seal member, and the plate was incubated at 37° C. for 90 minutes while gently shaking and stirring. Thereafter, to each well, 100 μL of 5 N HCl was added and the assay plate was stirred at room temperature for 5 minutes, whereby the enzymatic reaction was stopped and also acyl-CoA was hydrolyzed. Thereafter, the enzymatic reaction solution in each well was adsorbed to each well of a 96-well GF/C filter plate (PerkinElmer, Unifilter 96GF/C) through which water had been passed in advance, and then, each well was washed with water to remove unadsorbed malonyl-CoA and the GF/C filter plate was dried at 50° C. for 60 minutes. Thereafter, to each well, 30 μL of a scintillator (PerkinElmer, Microscinti 0) was added and the upper part of the plate was sealed, and the radioactivity of the fixed [^14C] was measured using a microplate scintillation counter (PerkinElmer, Top Count) from which the enzymatic activity was determined. The human LCE enzyme inhibitory activity of the test compound was calculated using the radioactivity obtained from a well to which DMSO containing no test compound is added as a control.

SMILES strings stand for the structures.

The term IC50 denotes the concentration at which inhibition is half-maximal. A high value points to lower potency.

Turning to `CC(C)Oc1ccc(NC(=O)[C@@H]2C[C@@H]3CC[C@H]2N(S(=O)(=O)c2cn(C)cn2)C3)cc1` (relative stereo) [Example 26, (1R*,4S*,6R*)-N-(4-Isopropoxyphenyl)-2-[(1-methyl-1H-imidazol-4-yl)sulfonyl]-2-azabicyclo[2.2.2]octane-6-carboxamide], half-maximal inhibition (IC50) was put at 268 nM. For `CCCCS(=O)(=O)N1C[C@H]2CC[C@@H]1[C@H](C(=O)Nc1cc(C3CC3)n[nH]1)C2` (relative stereo) [Example 42, (1R*,4S*,6R*)-2-(Butylsulfonyl)-N-(3-cyclopropyl-1H-pyrazol-5-yl)-2-azabicyclo[2.2.2]octane-6-carboxamide], half-maximal inhibition (IC50) was put at 155 nM. Against the preceding molecule, the IC50 is about 1.7-fold lower.

`CC(C)Oc1ccc(NC(=O)[C@@H]2C[C@@H]3CC[C@H]2N(S(=O)(=O)c2ccccn2)C3)nc1` (relative stereo) [Example 47, (1R*,4S*,6R*)-N-(5-Isopropoxypyridin-2-yl)-2-(pyridin-2-ylsulfonyl)-2-azabicyclo[2.2.2]octane-6-carboxamide] gave an IC50 of 19 nM.

Consider `CC(C)Oc1ccc(NC(=O)[C@@H]2C[C@@H]3CC[C@H]2N(S(=O)(=O)c2cn(C)cn2)C3)nc1` (relative stereo) [Example 48, (1R*,4S*,6R*)-N-(5-isopropoxypyridin-2-yl)-2-[(1-methyl-1H-imidazol-4-yl)sulfonyl]-2-azabicyclo[2.2.2]octane-6-carboxamide], for which the IC50 was 159 nM. `CC(C)Oc1cc(NC(=O)[C@@H]2C[C@@H]3CC[C@H]2N(S(=O)(=O)c2cn(C)cn2)C3)n[nH]1` (relative stereo) [Example 105, (1R*,4S*,6R*)-N-(5-Isopropoxy-1H-pyrazol-3-yl)-2-[(1-methyl-1H-imidazol-4-yl)sulfonyl]-2-azabicyclo[2.2.2]octane-6-carboxamide]: the IC50 was found to be 132 nM. To `COc1ccccc1C(=O)NCC1(c2ccccc2)CCCN(S(=O)(=O)c2ccccn2)C1` (stereo not drawn) [Example 64, 2-Methoxy-N-{[3-phenyl-1-(pyridin-2-ylsulfonyl)piperidin-3-yl]methyl}benzamide] belongs 20 nM; to `CC(C)Oc1ccc(C(=O)NCC2(c3ccccc3)CCCN(S(=O)(=O)c3ccccn3)C2)cc1` (stereo not drawn) [Example 73, 4-Isopropoxy-N-{[3-phenyl-1-(pyridin-2-ylsulfonyl)piperidin-3-yl]methyl}benzamide], 3.7 nM. Turning to `CC(C)Oc1ccc(C(=O)NCC2(c3ccccc3)CCCN(S(=O)(=O)c3cn(C)cn3)C2)cc1` (stereo not drawn) [Example 74, 4-Isopropoxy-N-({1-[(1-methyl-1H-imidazol-4-yl)sulfonyl]-3-phenylpiperidin-3-yl}methyl)benzamide], the IC50 turned out to be 17.4 nM. In the case of `CCCS(=O)(=O)N1CCCC(CNC(=O)c2ccc(OC(C)C)cn2)(c2ccccc2)C1` (stereo not drawn) [Example 76, 5-Isopropoxy-N-{[3-phenyl-1-(propylsulfonyl)piperidin-3-yl]methyl}pyridine-2-carboxamide], the IC50 amounted to 44 nM. In the case of `CC(C)Oc1ccc(C(=O)NCC2(c3ccccc3)CCCN(S(=O)(=O)c3ccccn3)C2)nc1` (stereo not drawn) [Example 78, 5-Isopropoxy-N-{[3-phenyl-1-(pyridin-2-ylsulfonyl)piperidin-3-yl]methyl}pyridine-2-carboxamide] it was 14 nM; in that of `CC(C)Oc1ccc(C(=O)NCC2(c3ccccc3)CCCN(S(=O)(=O)c3cn(C)cn3)C2)nc1` (stereo not drawn) [Example 79, 5-Isopropoxy-N-({1-[(1-methyl-1H-imidazol-4-yl)sulfonyl]-3-phenylpiperidin-3-yl}methyl)pyridine-2-carboxamide], 49 nM; in that of `CC(C)Oc1ccc(C(=O)NCC2(C)CCCN(S(=O)(=O)c3ccccc3)C2)cc1` (stereo not drawn) [Example 81, 4-Isopropoxy-N-{[3-methyl-1-(phenylsulfonyl)piperidin-3-yl]methyl}benzamide], 51 nM.

In the case of `CC(C)Oc1ccc(C(=O)NCC2(C)CCCN(S(=O)(=O)c3ccccn3)C2)cc1` (stereo not drawn) [Example 82, 4-Isopropoxy-N-{[3-methyl-1-(pyridin-2-ylsulfonyl)piperidin-3-yl]methyl}benzamide], the IC50 came to 60 nM. The IC50 values of the last two molecules are within 1.5-fold of each other. In turn, `CCC1(CNC(=O)c2ccc(OC(C)C)cc2)CCCN(S(=O)(=O)c2ccccn2)C1` (stereo not drawn) [Example 85, N-{[3-Ethyl-1-(pyridin-2-ylsulfonyl)piperidin-3-yl]methyl}-4-isopropoxybenzamide] came in with an IC50 of 14 nM. To `CCC1(CNC(=O)c2ccc(OC(C)C)cc2)CCCN(S(=O)(=O)c2cn(C)cn2)C1` (stereo not drawn) [Example 86, N-({3-Ethyl-1-[(1-methyl-1H-imidazol-4-yl)sulfonyl]piperidin-3-yl}methyl)-4-isopropoxybenzamide] belongs 284 nM; to `CC(C)Cc1cc(C(=O)NCC2(c3ccccc3)CCCN(S(=O)(=O)c3cn(C)cn3)C2)[nH]n1` (stereo not drawn) [Example 98, 3-Isobutyl-N-({1-[(1-methyl-1H-imidazol-4-yl)sulfonyl]-3-phenylpiperidin-3-yl}methyl)-1H-pyrazole-5-carboxamide], 12 nM.

Turning to `CCC1(C(=O)Nc2ccc(OC(C)C)cn2)CCCN(S(=O)(=O)c2cn(C)cn2)C1` (stereo not drawn) [Example 103, 3-Ethyl-N-(5-isopropoxypyridin-2-yl)-1-[(1-methyl-1H-imidazol-4-yl)sulfonyl]piperidine-3-carboxamide], the midpoint of inhibition, the IC50, lay at 35 nM.

`CCC1(C(=O)Nc2cc(OC(C)C)[nH]n2)CCCN(S(=O)(=O)c2cn(C)cn2)C1` (stereo not drawn) [Example 104, 3-Ethyl-N-(5-isopropoxy-1H-pyrazol-3-yl)-1-[(1-methyl-1H-imidazol-4-yl)sulfonyl]piperidine-3-carboxamide] returned an IC50 of 38 nM.

These data come from patent publication US8367698B2, “3-substituted sulfonyl piperidine derivative” (MSD K.K., priority 2008, dated 2013).
